Columns and labels:
HbS erythrocytes [1] = settings: literature (15, 16); cited from earlier work
HbS erythrocytes [2] = experiment: Inhibition of sickling of intact erythrocytes at low oxygen tension; assay type: cell-based, human; settings: for sickling of deoxygenated erythrocytes: microscope, formalin-fixed
Method: The procedure used was essentially that of Cerami and Manning (15). The source of the red cells was human blood in which HbS represented essentially 100% of the total hemoglobin as determined by electrophoresis on a cellulose acetate membrane in a Supre-Heme® Tris-EDTA-boric acid buffer (Helena Laboratories, Beaumont, Tex.).
Ten microliters of blood was diluted to 5 ml with PBS and 1 ml aliquots were distributed into the same type of cuvettes used to study hemoglobin S aggregation (see above). Two #25 hypodermic needles were inserted into each plastic diaphragm and nitrogen was passed over the surface of the erythrocyte suspension for 15 minutes with periodic gentle shaking. The hypodermic needles were removed and the sealed cuvettes were left for 2 hours at room temperature. The control cuvette was treated identically except that the cap was loosened for the 2 hour period.
Then 250 μl of 10% buffered formalin (Metpath) was added to the cell suspensions, which were allowed to stand at room temperature for 15 minutes. The cell suspensions were then sedimented by centrifugation, suspended in 100 μl of PBS and examined under the microscope.

hemoglobin S = target: T1, hemoglobin S (Homo sapiens, UniProt P68871+P69905, E7V); experiment: Inhibition of aggregation of deoxygenated hemoglobin S (turbidity at 700 nm); assay type: biochemical; settings: low oxygen tension, 1.8M phosphate buffer, 30° C.
T1 construct: from tissue; host or cells: blood / erythrocytes of a subject with sickle cell disease (inferred from the general method)
Method: Inhibition of Aggregation of Hemoglobin S
To a 10 mm cuvette (Type 9GL14S, Septum seal, Uvonic Instruments, Plainview, N.Y. 11803) containing 0.9 ml of 1.8M phosphate buffer, pH 9.4, was added 5 mg of Na2S203. The cuvette was capped and two #25 hypodermic needles were inserted through the soft plastic seals. Nitrogen was passed over the surface of the solution for 15 minutes to drive off oxygen; the cuvette was then gently shaken to dissolve the Na2S203. The cuvette was then placed in an ice bath to bring the solution to 4° C. and 0.1 ml of a 2 g/dl HbS solution (13, 14) was added through the plastic diaphragm with a Hamilton air-tight syringe. The temperature of the solution in the cuvette was raised by placing it in a 30° C. bath and then into a spectrophotometer in which the increase in turbidity was measured with time at 700 nm. […] The latter was extracted with phosphate buffer from tablets of Valtrex (Glaxo Wellcome).

human hemoglobin = human hemoglobin (Homo sapiens, UniProt P68871+P69905); settings: personal communication; cited from earlier work

Row | in vitro aggregation of HbS (hemoglobin S) | Compound | concentration used to inhibit sickling (HbS erythrocytes [1]) | concentration relative to the effective concentration of acyclovir (HbS erythrocytes [2]; KCNO 2.4 mg/ml versus acyclovir (FIG. 2)) | sickling of deoxygenated erythrocytes (HbS erythrocytes [2]; 0.2 mg/ml) | sickling of deoxygenated erythrocytes (HbS erythrocytes [2]; 0.3 mg/ml) | sickling of deoxygenated erythrocytes (HbS erythrocytes [2]; 0.4 mg/ml) | proportion of sickling cells (HbS erythrocytes [2]; lowest concentration (FIG. 2B, 0.2 mg/ml)) | change in Hill coefficient (human hemoglobin) | change in oxygen affinity (human hemoglobin)
1 | – | N#C[O-].[K+] [KCNO] | 2.4 mg/mL | more than 10 × | – | – | – | – | – | –
2 | inhibiting | Nc1nc2c(ncn2COCCO)c(=O)[nH]1 [acyclovir, 2-amino-1,9-dihydro-9-[(2-hydroxyethoxy)methyl]-6H-purin-6-one] | – | – | Minimal sickling | Minimal sickling | essentially no sickling | below 60% | no significant change | no significant change
3 | inhibiting | CC(C)[C@H](N)C(=O)OCCOCn1cnc2c(=O)[nH]c(N)nc21 [valacyclovir, L-valine, 2-[(2-amino-1,6-dihydro-6-oxo-9H-purin-9-yl)methoxy]ethyl ester] | – | – | – | – | – | – | – | –

From patent publication US6946457B2, “Methods of treating sickle cell disease” (The Trustees of Columbia University in the City of New York, priority 2001, dated 2005)
